Results from patent US6855727B2, “Muscular fatigue-controlling composition and method for providing muscular fatigue-controlling effect” (Yaizu Suisankagaku Industry Co., Ltd., priority 2000, dated 2005).

Assay: lactic acid amount in plasma after loading of exercise
Assay type: in vivo
Conditions: Test Example 2; mice, 200 mg/kg oral (total amount); 1 hour after loading of exercise (FIG. 6)
Protocol: Further, when 1 hour passed after the loading of exercise, the blood was collected and the plasma was separated, and the lactic acid amount in the plasma was measured. The measurement of lactic acid amount was carried out with a commercially available kit (trade name: “F-kit L-lactic acid”; manufactured by Beringer Mannheim Co.). […] Further, when 1 hour passed after the loading of exercise, the blood was collected and the plasma was separated, and the lactic acid amount in the plasma was measured in the same manner as in TEST EXAMPLE 1.

In the case of O=C[C@H](O)[C@H](O)[C@H](O)CO [ribose, D-ribose], the “lactic acid amount in the plasma, decrease as compared with the control group” value is reported as 29.4%.
